According to paper PMC3702004, “Comparison of Intake and Systemic Relative Effect Potencies of Dioxin-like Compounds in Female Mice after a Single Oral Dose” (Environmental Health Perspectives, 2013):

Each molecule was assayed on Cyp1a1 mRNA in liver (assay: Cyp1a1 gene expression in liver (real-time PCR)). Conditions: dose metric Adm dose; 3 days after single oral dose.
Assay type: in vivo, female C57BL/6 mice
Description: (§1) Animals. Eight-week-old female C57BL/6 mice (Harlan laboratories, Venray, the Netherlands) were randomly assigned to treatment groups (six animals per group) and allowed to acclimate for 1.5 weeks. The animals were housed in groups in standard cages and conditions (23 ± 2°C, 50–60% relative humidity, 12-hr dark/light cycle) with free access to food and water. Mice received a single dose of test compound by oral gavage at a dosing volume of 10 mL/kg body weight (BW). Mice treated with corn oil vehicle (10 mL/kg BW) served as controls. For each congener, five different doses were administered, ranging from 0.5–100 μg/kg BW (TCDD) to 5,000–500,000 µg/kg BW (PCB-153). Detailed information on doses is provided in Supplemental Material, Table S1 (http://dx.doi.org/10.1289/ehp.1206336). On day 3 after dosing, animals were euthanized by CO2/O2 asphyxiation, and blood was immediately collected from the abdominal aorta. The liver, thymus, spleen, and adipose tissue were removed, weighed (liver, thymus, and spleen), snap frozen, and stored at –80°C. All animal treatments were performed with permission of the Animal Ethical Committee (DEC Utrecht) and performed according to the [Law on Animal Experiments (1977)]. Animals were treated humanely and with regard for alleviation of suffering.
(§2) RNA isolation and quantitative real-time polymerase chain reaction (PCR). Total RNA was isolated from liver and PBLs using a QIAGEN RNeasy kit (QIAGEN). Purity and concentration of the isolated RNA was determined by measuring the absorbance ratio at 260/280 nm and 230/260 nm with a Nanodrop 2000 spectrophotometer (Thermo Scientific, Asheville, NC, USA). RNA was reverse transcribed to complementary DNA (cDNA) using the iScript cDNA synthesis Kit (Bio-Rad, Veenendaal, the Netherlands). Quantitative real-time PCR analyses were performed using the iQ Real-Time PCR Detection System with SYBR green (Bio-Rad). Amplification reactions were set up with […] containing 12.5 μL iQ SYBR Green Supermix (Bio-rad), 0.5 μL distilled H2O, 1 μL (10 μM) forward primer, 1 μL (10 μM) reverse primer, and 10 μL first strand cDNA (10X diluted). Primer sequences were as follows: Cyp1a1: forward-5´-GGTTAACCATGACCGGGAACT-3´ and reverse-5´-TGCCCAAACCAAAGAGAGTGA-3´ ([Schulz et al. 2012]); Cyp1a2: forward-5´-ACATTCCCAAGGAGCGCTGTATCT-3´ and reverse-5´-GTCGATGGCCGAGTTGTTATTGGT-3´ ([Flaveny et al. 2010]); Cyp1b1: forward-5´-GTGGCTGCTCATCCTCTTTACC-3´ and reverse-5´-CCCACAACCTGGTCCAACTC-3´ ([Berge et al. 2004]); β-actin: forward-5´-ATGCTCCCCGGGCTGTAT-3´ and reverse-5´-CATAGGAGTCCTTCTGACCCATTC-3´ ([Schulz et al. 2012]). All primers were run through the National Center for Biotechnology Information Primer-BLAST database (http://www.ncbi.nlm.nih.gov/tools/primer-blast/) to confirm specificity and validate for optimal annealing temperature (60°C for all primers) and efficiency. […] The following program was used for denaturation and amplification of cDNA: 3 min at 95°C, followed by 40 cycles of 15 sec at 95°C and 45 sec at 60°C. Gene expression for each sample was expressed as threshold cycle (Ct), normalized to the reference gene β-actin (ΔCt). We calculated fold induction relative to the control group.
Data analysis. We obtained concentration–response curves using a sigmoidal dose–response nonlinear regression curve fit with variable slope (GraphPad Prism 6.01; GraphPad Software Inc., San Diego, CA, USA):
In this Hill equation, y is the dependent variable (EROD activity or fold induction of mRNA levels), x the independent variable (administered or systemic dose), E0 is the estimated background response level, Emax is the maximum response, b is the estimated median effective concentration (EC50), and n is the shaping parameter of the Hill curve.
Using the congener-specific BMR20TCDD concentration, REPs were calculated relatively to TCDD: […]

Structure (SMILES)	BMR20TCDD Liver Cyp1a1 mRNA
Clc1ccc(-c2cc(Cl)c(Cl)cc2Cl)cc1Cl [PCB-118, 2,3´,4,4´,5-pentachlorobiphenyl]	139,631 µg/kg BW
Clc1ccc(-c2cc(Cl)c(Cl)c(Cl)c2Cl)cc1Cl [PCB-156, 2,3,3´,4,4´,5-hexachlorobiphenyl]	44,305 µg/kg BW
Clc1cc2c(cc1Cl)Oc1cc(Cl)c(Cl)cc1O2 [TCDD, 2,3,7,8-tetrachlorodibenzodioxin, reference compound]	0.64 µg/kg BW
Clc1ccc(-c2cc(Cl)c(Cl)c(Cl)c2)cc1Cl [PCB-126, 3,3´,4,4´,5-pentachlorobiphenyl]	558 µg/kg BW
Clc1cc2c(cc1Cl)Oc1c(cc(Cl)c(Cl)c1Cl)O2 [PeCDD, 1,2,3,7,8-pentachlorodibenzodioxin]	1.25 µg/kg BW

Same assay, conditions: dose metric Syst adipose; 3 days after single oral dose

Structure (SMILES)	BMR20TCDD Liver Cyp1a1 mRNA
Clc1ccc(-c2cc(Cl)c(Cl)c(Cl)c2Cl)cc1Cl [PCB-156, 2,3,3´,4,4´,5-hexachlorobiphenyl]	180,515 ng/g lipid
Clc1cc2c(cc1Cl)Oc1cc(Cl)c(Cl)cc1O2 [TCDD, 2,3,7,8-tetrachlorodibenzodioxin, reference compound]	2.50 ng/g lipid
Clc1ccc(-c2cc(Cl)c(Cl)c(Cl)c2)cc1Cl [PCB-126, 3,3´,4,4´,5-pentachlorobiphenyl]	315 ng/g lipid
Clc1cc2c(cc1Cl)Oc1c(cc(Cl)c(Cl)c1Cl)O2 [PeCDD, 1,2,3,7,8-pentachlorodibenzodioxin]	2.36 ng/g lipid

Same assay, conditions: dose metric Syst plasma; 3 days after single oral dose

Structure (SMILES)	BMR20TCDD Liver Cyp1a1 mRNA
Clc1ccc(-c2cc(Cl)c(Cl)cc2Cl)cc1Cl [PCB-118, 2,3´,4,4´,5-pentachlorobiphenyl]	803,766 ng/g lipid
Clc1ccc(-c2cc(Cl)c(Cl)c(Cl)c2Cl)cc1Cl [PCB-156, 2,3,3´,4,4´,5-hexachlorobiphenyl]	303,586 ng/g lipid
Clc1cc2c(cc1Cl)Oc1cc(Cl)c(Cl)cc1O2 [TCDD, 2,3,7,8-tetrachlorodibenzodioxin, reference compound]	2.66 ng/g lipid
Clc1cc2c(cc1Cl)Oc1c(cc(Cl)c(Cl)c1Cl)O2 [PeCDD, 1,2,3,7,8-pentachlorodibenzodioxin]	3.94 ng/g lipid

Same assay, conditions: relative to TCDD; dose metric Adm dose (µg/kg BW)

Structure (SMILES)	REP Liver Cyp1a1 mRNA
Clc1ccc(-c2cc(Cl)c(Cl)cc2Cl)cc1Cl [PCB-118, 2,3´,4,4´,5-pentachlorobiphenyl]	0.000005
Clc1ccc(-c2cc(Cl)c(Cl)c(Cl)c2Cl)cc1Cl [PCB-156, 2,3,3´,4,4´,5-hexachlorobiphenyl]	0.00001
Clc1cc2c(cc1Cl)Oc1cc(Cl)c(Cl)cc1O2 [TCDD, 2,3,7,8-tetrachlorodibenzodioxin, reference compound]	1
Clc1ccc(-c2cc(Cl)c(Cl)c(Cl)c2)cc1Cl [PCB-126, 3,3´,4,4´,5-pentachlorobiphenyl]	0.001
Clc1cc2c(cc1Cl)Oc1c(cc(Cl)c(Cl)c1Cl)O2 [PeCDD, 1,2,3,7,8-pentachlorodibenzodioxin]	0.5

Same assay, conditions: relative to TCDD; dose metric Syst adipose (ng/g lipid)

Structure (SMILES)	REP Liver Cyp1a1 mRNA
Clc1ccc(-c2cc(Cl)c(Cl)c(Cl)c2Cl)cc1Cl [PCB-156, 2,3,3´,4,4´,5-hexachlorobiphenyl]	0.00001
Clc1cc2c(cc1Cl)Oc1cc(Cl)c(Cl)cc1O2 [TCDD, 2,3,7,8-tetrachlorodibenzodioxin, reference compound]	1
Clc1ccc(-c2cc(Cl)c(Cl)c(Cl)c2)cc1Cl [PCB-126, 3,3´,4,4´,5-pentachlorobiphenyl]	0.008
Clc1cc2c(cc1Cl)Oc1c(cc(Cl)c(Cl)c1Cl)O2 [PeCDD, 1,2,3,7,8-pentachlorodibenzodioxin]	1

Same assay, conditions: relative to TCDD; dose metric Syst liver (ng/g lipid)

Structure (SMILES)	REP Liver Cyp1a1 mRNA
Clc1ccc(-c2cc(Cl)c(Cl)cc2Cl)cc1Cl [PCB-118, 2,3´,4,4´,5-pentachlorobiphenyl]	0.00005
Clc1ccc(-c2cc(Cl)c(Cl)c(Cl)c2Cl)cc1Cl [PCB-156, 2,3,3´,4,4´,5-hexachlorobiphenyl]	0.0001
Clc1cc2c(cc1Cl)Oc1cc(Cl)c(Cl)cc1O2 [TCDD, 2,3,7,8-tetrachlorodibenzodioxin, reference compound]	1
Clc1ccc(-c2cc(Cl)c(Cl)c(Cl)c2)cc1Cl [PCB-126, 3,3´,4,4´,5-pentachlorobiphenyl]	0.001
Clc1cc2c(cc1Cl)Oc1c(cc(Cl)c(Cl)c1Cl)O2 [PeCDD, 1,2,3,7,8-pentachlorodibenzodioxin]	0.4

Same assay, conditions: relative to TCDD; dose metric Syst liver (ng/g liver)

Structure (SMILES)	REP Liver Cyp1a1 mRNA
Clc1ccc(-c2cc(Cl)c(Cl)cc2Cl)cc1Cl [PCB-118, 2,3´,4,4´,5-pentachlorobiphenyl]	0.00007
Clc1ccc(-c2cc(Cl)c(Cl)c(Cl)c2Cl)cc1Cl [PCB-156, 2,3,3´,4,4´,5-hexachlorobiphenyl]	0.0001
Clc1cc2c(cc1Cl)Oc1cc(Cl)c(Cl)cc1O2 [TCDD, 2,3,7,8-tetrachlorodibenzodioxin, reference compound]	1
Clc1ccc(-c2cc(Cl)c(Cl)c(Cl)c2)cc1Cl [PCB-126, 3,3´,4,4´,5-pentachlorobiphenyl]	0.001
Clc1cc2c(cc1Cl)Oc1c(cc(Cl)c(Cl)c1Cl)O2 [PeCDD, 1,2,3,7,8-pentachlorodibenzodioxin]	0.4

Same assay, conditions: relative to TCDD; dose metric Syst plasma (ng/g lipid)

Structure (SMILES)	REP Liver Cyp1a1 mRNA
Clc1ccc(-c2cc(Cl)c(Cl)cc2Cl)cc1Cl [PCB-118, 2,3´,4,4´,5-pentachlorobiphenyl]	0.000003
Clc1ccc(-c2cc(Cl)c(Cl)c(Cl)c2Cl)cc1Cl [PCB-156, 2,3,3´,4,4´,5-hexachlorobiphenyl]	0.000009
Clc1cc2c(cc1Cl)Oc1cc(Cl)c(Cl)cc1O2 [TCDD, 2,3,7,8-tetrachlorodibenzodioxin, reference compound]	1
Clc1ccc(-c2cc(Cl)c(Cl)c(Cl)c2)cc1Cl [PCB-126, 3,3´,4,4´,5-pentachlorobiphenyl]	0.008
Clc1cc2c(cc1Cl)Oc1c(cc(Cl)c(Cl)c1Cl)O2 [PeCDD, 1,2,3,7,8-pentachlorodibenzodioxin]	0.7

The molecules below were run on Cyp1a1 mRNA in PBLs (assay: Cyp1a1 gene expression in peripheral blood lymphocytes). Conditions: dose metric Adm dose; 3 days after single oral dose.
Assay type: in vivo, female C57BL/6 mice
Description: as §1
Plasma and PBL isolation. Blood from two mice was pooled (total volume of approximately 1.4 mL); plasma and PBLs were then isolated using Ficoll Paque gradient (GE Healthcare Europe, Diegem, Belgium). Plasma samples were stored at –80°C until compound analysis. Isolated lymphocytes were lysed with RLT buffer (QIAGEN, Venlo, the Netherlands) as described in the QIAGEN RNAeasy kit protocol and stored at –80°C until use.
as §2
Data analysis. We obtained concentration–response curves using a sigmoidal dose–response nonlinear regression curve fit with variable slope (GraphPad Prism 6.01; GraphPad Software Inc., San Diego, CA, USA): […]

Structure (SMILES)	BMR20TCDD PBLs Cyp1a1 mRNA
Clc1ccc(-c2cc(Cl)c(Cl)c(Cl)c2Cl)cc1Cl [PCB-156, 2,3,3´,4,4´,5-hexachlorobiphenyl]	747,734 µg/kg BW
Clc1cc2c(cc1Cl)Oc1cc(Cl)c(Cl)cc1O2 [TCDD, 2,3,7,8-tetrachlorodibenzodioxin, reference compound]	22.4 µg/kg BW
Clc1ccc(-c2cc(Cl)c(Cl)c(Cl)c2)cc1Cl [PCB-126, 3,3´,4,4´,5-pentachlorobiphenyl]	603 µg/kg BW
Clc1cc2c(cc1Cl)Oc1c(cc(Cl)c(Cl)c1Cl)O2 [PeCDD, 1,2,3,7,8-pentachlorodibenzodioxin]	33.7 µg/kg BW

Same assay, conditions: dose metric Syst plasma; 3 days after single oral dose

Structure (SMILES)	BMR20TCDD PBLs Cyp1a1 mRNA
Clc1ccc(-c2cc(Cl)c(Cl)c(Cl)c2Cl)cc1Cl [PCB-156, 2,3,3´,4,4´,5-hexachlorobiphenyl]	2,359,081 ng/g lipid
Clc1cc2c(cc1Cl)Oc1cc(Cl)c(Cl)cc1O2 [TCDD, 2,3,7,8-tetrachlorodibenzodioxin, reference compound]	50.6 ng/g lipid
Clc1ccc(-c2cc(Cl)c(Cl)c(Cl)c2)cc1Cl [PCB-126, 3,3´,4,4´,5-pentachlorobiphenyl]	847 ng/g lipid
Clc1cc2c(cc1Cl)Oc1c(cc(Cl)c(Cl)c1Cl)O2 [PeCDD, 1,2,3,7,8-pentachlorodibenzodioxin]	34.0 ng/g lipid

Same assay, conditions: relative to TCDD; dose metric Adm dose (µg/kg BW)

Structure (SMILES)	REP PBLs Cyp1a1 mRNA
Clc1ccc(-c2cc(Cl)c(Cl)c(Cl)c2Cl)cc1Cl [PCB-156, 2,3,3´,4,4´,5-hexachlorobiphenyl]	0.00003
Clc1cc2c(cc1Cl)Oc1cc(Cl)c(Cl)cc1O2 [TCDD, 2,3,7,8-tetrachlorodibenzodioxin, reference compound]	1
Clc1ccc(-c2cc(Cl)c(Cl)c(Cl)c2)cc1Cl [PCB-126, 3,3´,4,4´,5-pentachlorobiphenyl]	0.04
Clc1cc2c(cc1Cl)Oc1c(cc(Cl)c(Cl)c1Cl)O2 [PeCDD, 1,2,3,7,8-pentachlorodibenzodioxin]	0.7

Same assay, conditions: relative to TCDD; dose metric Syst plasma (ng/g lipid)

Structure (SMILES)	REP PBLs Cyp1a1 mRNA
Clc1ccc(-c2cc(Cl)c(Cl)c(Cl)c2Cl)cc1Cl [PCB-156, 2,3,3´,4,4´,5-hexachlorobiphenyl]	0.00002
Clc1cc2c(cc1Cl)Oc1cc(Cl)c(Cl)cc1O2 [TCDD, 2,3,7,8-tetrachlorodibenzodioxin, reference compound]	1
Clc1ccc(-c2cc(Cl)c(Cl)c(Cl)c2)cc1Cl [PCB-126, 3,3´,4,4´,5-pentachlorobiphenyl]	0.06
Clc1cc2c(cc1Cl)Oc1c(cc(Cl)c(Cl)c1Cl)O2 [PeCDD, 1,2,3,7,8-pentachlorodibenzodioxin]	1.5
